Measured values: ChEMBL document CHEMBL3217457, “Carbazolepyrrolo[2,1-c][1,4]benzodiazepine conjugates: design, synthesis, and biological evaluation” (Medchemcomm, 2011)
The source made the active and inactive calls. No cut-off for these calls is given here.

Experiments:
NCI-H322M = assay: Growth inhibition of human NCI-H322M cells; assay type: functional
[1] = Growth inhibition of human HCT15 cells; assay type: functional; settings: HCT-15
SK-OV-3 = assay: Growth inhibition of human SKOV3 cells; assay type: functional
SNB-75 = assay: Growth inhibition of human SNB75 cells; assay type: functional
[2] = Growth inhibition of human MOLT4 cells; assay type: functional; settings: MOLT-4
PC-3 = assay: Growth inhibition of human PC3 cells; assay type: functional
786-0 = assay: Growth inhibition of human 786-0 cells; assay type: functional
[3] = Growth inhibition of human MDA-MB cells; assay type: functional
[4] = Growth inhibition of human OVCAR5 cells; assay type: functional; settings: OVCAR-5
HCT-116 = assay: Growth inhibition of human HCT116 cells; assay type: functional
MCF7 [5] = assay: Cytotoxicity against human MCF7 cells by ATP-dependent cell viability assay; assay type: functional, cell-based
A549 = assay: Growth inhibition of human A549 cells; assay type: functional
MDA-MB-435 = assay: Growth inhibition of human MDA-MB-435 cells; assay type: functional
MDA-MB-468 = assay: Growth inhibition of human MDA-MB-468 cells; assay type: functional
Calf thymus DNA = assay: Binding affinity to calf thymus DNA assessed as change in melting temperature at compound to DNA ratio of 1:5 after 18 hrs by thermal denaturation analysis; assay type: nucleic-acid assay; settings: Bos taurus
ACHN = assay: Growth inhibition of human ACHN cells; assay type: functional
MCF7 [6] = assay: Antiproliferative activity against human MCF7 cells assessed as cell proliferation at 4 uM after 24 hrs by BrdU incorporation assay (reference value: 100%); assay type: functional; settings: MCF7, 24 h, read-out: Activity
TK-10 = assay: Growth inhibition of human TK10 cells; assay type: functional
KM12 = assay: Growth inhibition of human KM12 cells; assay type: functional
[7] = Growth inhibition of human RXF393 cells; assay type: functional; settings: RXF 393
U-251 = assay: Growth inhibition of human U251 cells; assay type: functional
T47D = assay: Growth inhibition of human T47D cells; assay type: functional
[8] = Growth inhibition of human OVCAR4 cells; assay type: functional; settings: OVCAR-4
MCF7 [9] = assay: Cell cycle arrest in human MCF7 cells assessed as accumulation at G1 phase at 4 uM after 24 hrs by propidium iodide staining based flow cytometry (reference value: 57.98%); assay type: functional
[10] = Growth inhibition of human UO31 cells; assay type: functional; settings: UO-31
SF-268 = assay: Growth inhibition of human SF268 cells; assay type: functional
COLO 205 = assay: Growth inhibition of human COLO205 cells; assay type: functional
A498 = assay: Growth inhibition of human A498 cells; assay type: functional
DU-145 = assay: Growth inhibition of human DU145 cells; assay type: functional
SW-620 = assay: Growth inhibition of human SW620 cells; assay type: functional
HL-60(TB) = assay: Growth inhibition of human HL-60(TB) cells; assay type: functional
CCRF-CEM = assay: Growth inhibition of human CCRF-CEM cells; assay type: functional
MCF7 [11] = assay: Cell cycle arrest in human MCF7 cells assessed as accumulation at G0/G1 phase at 4 uM after 24 hrs by propidium iodide staining based flow cytometry (reference value: 60.75%); assay type: functional
MCF7 [12] = assay: Cytotoxicity against human MCF7 cells assessed as decrease in cell viability at 2 to 16 uM after 6 to 48 hrs by MTT assay; assay type: functional, cell-based
MCF7 [13] = assay: Cell cycle arrest in human MCF7 cells assessed as accumulation at G2/M phase at 4 uM after 24 hrs by propidium iodide staining based flow cytometry (reference value: 24.95%); assay type: functional
SNB-19 = assay: Growth inhibition of human SNB19 cells; assay type: functional
Malme-3M = assay: Growth inhibition of human MALME-3M cells; assay type: functional
[14] = Growth inhibition of human UACC62 cells; assay type: functional; settings: UACC-62
[15] = Growth inhibition of human EKVX cells; assay type: functional
[16] = Growth inhibition of human SF539 cells; assay type: functional; settings: SF-539
SK-MEL-5 = assay: Growth inhibition of human SK-MEL-5 cells; assay type: functional
MCF7 [17] = assay: Cytotoxicity against human MCF7 cells assessed as decrease in cell viability at 4 uM after 24 hrs by MTT assay; assay type: functional, cell-based
[18] = Growth inhibition of human BT549 cells; assay type: functional; settings: BT-549
[19] = Growth inhibition of human UACC257 cells; assay type: functional; settings: UACC-257
NCI-H23 = assay: Growth inhibition of human NCI-H23 cells; assay type: functional
SiHa = assay: Growth inhibition of human SiHa cells; assay type: functional
SK-MEL-28 = assay: Growth inhibition of human SK-MEL-28 cells; assay type: functional
SR = assay: Growth inhibition of human SR cells; assay type: functional
[20] = Growth inhibition of human OVCAR3 cells; assay type: functional; settings: OVCAR-3
A2780 = assay: Growth inhibition of human A2780 cells; assay type: functional
MCF7 [21] = assay: Growth inhibition of human MCF7 cells; assay type: functional
[22] = Growth inhibition of human LOXIMVI cells; assay type: functional; settings: LOX IMVI
ZR-75-1 = assay: Growth inhibition of human ZR-75-1 cells; assay type: functional
NCI-H226 = assay: Growth inhibition of human NCI-H226 cells; assay type: functional
IGROV-1 = assay: Growth inhibition of human IGROV1 cells; assay type: functional
M14 = assay: Growth inhibition of human M14 cells; assay type: functional
[23] = Growth inhibition of human HOP92 cells; assay type: functional; settings: HOP-92
[24] = Growth inhibition of human Gurav cells; assay type: functional
SN12C = assay: Growth inhibition of human SN12C cells; assay type: functional
HT-29 = assay: Growth inhibition of human HT-29 cells; assay type: functional
NCI-H460 = assay: Growth inhibition of human NCI-H460 cells; assay type: functional
MCF7 [25] = assay: Cell cycle arrest in human MCF7 cells assessed as accumulation at S phase at 4 uM after 24 hrs by propidium iodide staining based flow cytometry (reference value: 14.30%); assay type: functional
KB = assay: Growth inhibition of human KB cells; assay type: functional
[26] = Growth inhibition of human HCC2998 cells; assay type: functional; settings: HCC 2998
MCF7 [27] = assay: Cell cycle arrest in human MCF7 cells assessed as accumulation at G0 phase at 4 uM after 24 hrs by propidium iodide staining based flow cytometry (reference value: 2.77%); assay type: functional
CAKI-1 = assay: Growth inhibition of human CAKI-1 cells; assay type: functional
NCI-H522 = assay: Growth inhibition of human NCI-H522 cells; assay type: functional
HOP-62 = assay: Growth inhibition of human HOP62 cells; assay type: functional
SK-MEL-2 = assay: Growth inhibition of human SK-MEL-2 cells; assay type: functional
[28] = Growth inhibition of human Hs 578T cells; assay type: functional

Compound: COc1cc2c(cc1OCCCN1CCN(CCCn3c4ccccc4c4ccccc43)CC1)N=C[C@@H]1CCCN1C2=O
- GI50 (NCI-H322M): 250 nM
- GI50 [1]: 280 nM
- GI50 (SK-OV-3): 290 nM
- GI50 (SNB-75): 150 nM
- GI50 [2]: 20 nM
- GI50 (PC-3): 30 nM
- GI50 (786-0): 190 nM
- GI50 [3]: 950 nM
- GI50 [4]: 30 nM
- GI50 (HCT-116): 60 nM
- inhibition (MCF7 [5]): Active
- GI50 (A549): 140 nM
- GI50 (MDA-MB-435): 10 nM
- GI50 (MDA-MB-468): 110 nM
- ΔTm (Calf thymus DNA): 7 °C
- GI50 (ACHN): 250 nM
- growth at 4 µM (MCF7 [6]): 35.2%
- GI50 (TK-10): 120 nM
- GI50 (KM12): 150 nM
- GI50 [7]: 220 nM
- GI50 (U-251): 30 nM
- GI50 (T47D): 170 nM
- GI50 [8]: 100 nM
- Activity (MCF7 [9]): 69.47%
- GI50 [10]: 120 nM
- GI50 (SF-268): 50 nM
- GI50 (COLO 205): 70 nM
- GI50 (A498): 170 nM
- GI50 (DU-145): 40 nM
- GI50 (SW-620): 40 nM
- GI50 (HL-60(TB)): 30 nM
- GI50 (CCRF-CEM): 20 nM
- Activity (MCF7 [11]): 86.6%
- inhibition (MCF7 [12]): Active
- Activity (MCF7 [13]): 3.87%
- GI50 (SNB-19): 210 nM
- GI50 (Malme-3M): 150 nM
- GI50 [14]: 150 nM
- GI50 [15]: 140 nM
- GI50 [16]: 120 nM
- GI50 (SK-MEL-5): 230 nM
- inhibition (MCF7 [17]): Active
- GI50 [18]: 130 nM
- GI50 [19]: 150 nM
- GI50 (NCI-H23): 260 nM
- GI50 (SiHa): 140 nM
- GI50 (SK-MEL-28): 60 nM
- GI50 (SR): 30 nM
- GI50 [20]: 69 nM
- GI50 (A2780): 120 nM
- GI50 (MCF7 [21]): 40 nM
- GI50 [22]: 30 nM
- GI50 (ZR-75-1): 130 nM
- GI50 (NCI-H226): 130 nM
- GI50 (IGROV-1): < 10 nM
- GI50 (M14): 150 nM
- GI50 [23]: 270 nM
- GI50 [24]: 120 nM
- GI50 (SN12C): 270 nM
- GI50 (HT-29): 50 nM
- GI50 (NCI-H460): 250 nM
- Activity (MCF7 [25]): 9.53%
- GI50 (KB): 130 nM
- GI50 [26]: 130 nM
- Activity (MCF7 [27]): 17.13%
- GI50 (CAKI-1): 120 nM
- GI50 (NCI-H522): < 10 nM
- GI50 (HOP-62): 80 nM
- GI50 (SK-MEL-2): 190 nM
- GI50 [28]: 160 nM

Compound: COc1cc2c(cc1OCCCCN1CCN(CCCn3c4ccccc4c4ccccc43)CC1)N=C[C@@H]1CCCN1C2=O
- GI50 (PC-3): 140 nM
- GI50 (A549): 140 nM
- ΔTm (Calf thymus DNA): 7.9 °C
- GI50 (COLO 205): 170 nM
- GI50 (SiHa): 160 nM
- GI50 (A2780): 140 nM
- GI50 (MCF7 [21]): 150 nM
- GI50 (ZR-75-1): 160 nM
- GI50 [24]: 150 nM
- GI50 (KB): 160 nM
- GI50 (HOP-62): 110 nM

Compound: COc1cc2c(cc1OCCCCn1c3ccccc3c3ccccc31)N=C[C@@H]1CCCN1C2=O
- GI50 (A549): 1920 nM
- ΔTm (Calf thymus DNA): 3.5 °C
- GI50 (COLO 205): 1700 nM
- GI50 (SiHa): 1700 nM
- GI50 (A2780): 1570 nM
- GI50 (MCF7 [21]): 2210 nM
- GI50 (ZR-75-1): 1810 nM
- GI50 [24]: 1600 nM
- GI50 (KB): 1870 nM
- GI50 (HOP-62): 1930 nM

Compound: COc1cc2c(cc1OCCCn1c3ccccc3c3ccccc31)N=C[C@@H]1CCCN1C2=O
- GI50 (A549): 1840 nM
- ΔTm (Calf thymus DNA): 4 °C
- GI50 (COLO 205): 1680 nM
- GI50 (SiHa): 1700 nM
- GI50 (A2780): 1210 nM
- GI50 (MCF7 [21]): 1850 nM
- GI50 (ZR-75-1): 1890 nM
- GI50 [24]: 1600 nM
- GI50 (KB): 1870 nM
- GI50 (HOP-62): 1930 nM
